Values quoted from earlier work in patent US20060052437A1, “Combination of an hmg-coa reductase inhibitor and a nitrate ester” (priority 2002, published 2006).

Columns and labels:
[1] = compared to aspirin
[2] = at withdrawal from the market, August 2001

CC(=O)Oc1ccccc1C(=O)Oc1cccc(CO[N+](=O)[O-])c1 [NCX-4016, 2-acetyloxy-benzoic acid 3-nitroxymethyl-phenyl ester]
toxicity at gastric level [1]: not toxic at gastric level

COCc1c(C(C)C)nc(C(C)C)c(/C=C/[C@@H](O)C[C@@H](O)CC(=O)O)c1-c1ccc(F)cc1 [cerivastatin]
deaths attributable to rhabdomyolysis [2]: 52 deaths
